Literature values as cited in patent publication US20260248929A1, “MINOXIDIL-CROSSLINKED INJECTABLE HYDROGELS FOR LOCAL AND SUSTAINED INTRADERMAL DELIVER Y” (THE TRUSTEES OF THE UNIVERSITY OF PENNSYLVANIA, priority 2023, published 2026).

Details: topical application to skin

Nc1cc(N2CCCCC2)nc(N)[n+]1[O-] [minoxidil]
minoxidil absorbed from a topical application: 1%
